Reference: patent US20020002202A1, “Use of fumarate salt of L-carnitine or its alkanoyl derivatives in ischaemia” (priority 1998, published 2002)
“Also recorded” adds a separate entry of the source.

Legend:
[1] = amount equivalent to the exogenous L-carnitine required; cited from earlier work
Perfused Heart = test: low-pressure or low-flow ischemia model, perfused heart (Langendorff)
Text: In this example, the low-pressure or low-flow ischemia model was used, which is a model recognised as valid for cardiac ischemia (Bolukoglu, H. et al. Am. J. Physiol. 1996: 270; H817-26).
The treatment schedule is illustrated in FIG. 1, in which the letters A-F denote the heart effluent sampling times for the measurement of metabolites. The hearts are removed from the animals and mounted on a Langerdorff appliance. The perfusion medium replacing the blood was a Krebs-Heinsleit standard bicarbonate buffer containing glucose 12 mM as energy source for cardiac metabolism.
After 30 minute perfusion at a pressure of 100 cm of water, ischemia was induced by reducing the perfusion pressure of the heart to 25 cm of water, thus reducing coronary flow from approximately 2 ml/min to approximately 0.3 ml/min. Reduction of the perfusion pressure gives rise to ischemia, since the heart will pump the fluid in the low-perfusion area rather than via the coronary bloodstream, supplying the flow to the heart.
This control model was compared with hearts perfused with L-carnitine 10 mM or L-carnitine fumarate 10 mM.
Cardiac function was tested in three different ways.
In the first, the NRM ^31P signal was monitored in real time.
This signal provides the best indication of the energy status of the heart.
In the second, the haemodynamics of the heart was measured by means of a pressure transducer mounted to measure the perfusion pressure. The haemodynamic measurements include heart rate, relative dP/dt (measurement of the contraction force of the heart) and the cardiac contraction amplitude. Coronary flow was also measured as an indicator of the heart's ability to provide oxygen and energy for its own metabolism.
In the third type of test, the metabolites and the enzyme LDH released by the heart were analysed in the effluent. The release of LDH indicates damage to cardiac tissue. The release of metabolites by the heart was tested by means of mass spectrometry coupled with gas chromatography.
The procedures of example 1 were substantially repeated, with the addition of a treatment with carnitine alone as a further control.

[2] = heart effluent, GC-MS, low-flow ischemia, 10 mM, vs control hearts

Row | Compound | gastrointestinal disorders (increased volume and fluidity of faeces and frequency of bowel movements) [1] | ATP phosphate peaks (alpha, beta, gamma) (Perfused Heart; 31P NMR, FIG. 2, after 40 minutes of ischemia, Example 2) | reserves of high-energy phosphate (creatine phosphate observed at NMR) (Perfused Heart; 31P NMR, after 45 minutes of ischemia, 10 mM, vs control hearts) | succinate released by the heart (Perfused Heart; heart effluent, FIG. 3, as compared to lactate, Example 2) | lactate released by the heart (Perfused Heart; [2]) | release of malate (Perfused Heart; [2]) | release of LDH (Perfused Heart; heart effluent, low-flow ischemia, 10 mM in perfusion medium, vs control hearts) | coronary flow (Perfused Heart; postischemic, 10 mM, vs control hearts) | postischemic cardiac contraction amplitude (Perfused Heart; pressure transducer, 10 mM, vs control hearts)
1 | C[N+](C)(C)C[C@H](O)CC(=O)[O-] [L-carnitine] | caused | lacking | – | – | – | – | – | – | –
2 | C[N+](C)(C)C[C@H](O)CC(=O)[O-].O=C(O)C(O)C(O)C(=O)O [L-carnitine L-tartrate] | caused | – | – | – | – | – | – | – | –
3 | L-carnitine acid fumarate [L-carnitine fumarate] | eliminated | – | greater | low amount | less and reduction | more | reduced; also recorded: affords protection against ischemic damage | greater | greater
